Data on 8 compounds can be found in patent US20250188068A1, “AMIDO CYCLOPROPYL DERIVATIVES AS LPA RECEPTOR INHIBITORS” (CHIESI FARMACEUTICI S.P.A., priority 2022, published 2025).

As a reminder, the IC50 is the concentration that gives 50% inhibition.

Series [1] has as its system Caco-2 cells monolayers (human colon carcinoma cell line). Particulars: Caco-2, 60 min, 10 μM, pH 7.4.
Method: The permeability of the compounds of the present invention was evaluated performing the assay on Caco-2 cells monolayers (human colon carcinoma cell line) by measuring the transport of compound (absorption and secretion) in both directions: apical to basolateral direction (AtoB) and basolateral to apical (BtoA) with and without P-gp inhibitor (Elacridar).
Caco 2 cells were kept in culture using MEM containing 20% FBS, 1 mM Sodium Pyruvate, 2 mM Glutamine and Pen/Strep. […]
Monolayer integrity of Caco-2 cells was evaluated before and after the experiment with TEER measurements using a Millicell ERS meter (Electrical Resistance System, from Millipore) and after the experiment using the paracellular permeability marker Lucifer yellow. […]
Test compound transport was measured in two directions (apical to basolateral [AtoB] and basolateral to apical [BtoA]) in HBSS (Hank's Balanced Salt Solution) transport buffer at pH 7.4 (n=3). […]
The permeability coefficients (Papp) in both directions: apical to basolateral (AtoB) and basolateral to apical (BtoA) with and without P-gp inhibitor (Elacridar) was calculated in nm/sec, using the following equation: […]
Series [2] concerns the target T1, human recombinant LPA1 expressed in CHO cells (Homo sapiens, UniProt Q92633).
T1 construct: expressed in transfected cells; host or cells: CHO cells (CHO-hLPA1 cell line)
As to the kind of experiment: FLIPR calcium mobilization assay, LPA1 antagonism in CHO-hLPA1 cells. Particulars: inhibition of LPA EC80 Ca2+ response, 30 min pre-incubation, range of activity. The class given is cell-based. The protocol:
The effectiveness of compounds of the present invention as LPA1 antagonist can be determined at the human recombinant LPA1 expressed in CHO cells, using a FLIPR assay in 384 well format.
CHO-hLPA1 cell lines are cultured in a humidified incubator at 5% CO2 in DMEM/F-12 (1:1) MIXTURE with 2 mM Glutamax, supplemented with 10% of Foetal Bovine Serum, 1 mM Sodium Pyruvate, 11 mM Hepes and 1× Penicillin/Streptomycin. CHO hLPA1 cells are seeded into black walled clear-bottom 384-well plates (#781091, Greiner Bio-One GmbH) at a density of 7,500 cells per well in 50 μl culture media and grown overnight in a 37° C. humidified CO2-incubator. Serial dilutions (1:3 or 1:4, 11 points CRC) of compounds are performed in 100% DMSO at 200× the final concentration. The compounds are diluted 1:50 prior to the experiment with Assay Buffer (20 mM HEPES, 145 mM NaCl, 5 mM KCl, 5.5 mM glucose, 1 mM MgCl2 and 2 mM CaCl2), pH 7.4 containing 0.01% Pluronic F-127) to obtain a solution corresponding to […] the final concentration in the assay (4×, 2% DMSO). The final concentration of DMSO in the assay will be 0.5% in each well. Medium is removed by aspiration and cells are then incubated with 30 μl of a loading solution containing 5 μM of the cytoplasmic Ca2+ indicator Cal-520 AM in Assay Buffer containing 2.5 mM probenecid for 30 min at 37° C. incubator (cell loading). The loaded cell plates are transferred into the FLIPR instrument and calcium responses are monitored during the on-line addition protocols. For testing of compounds, after the cell loading, 10 μl/well of 4× antagonists' solution was added onto the cells. After 30 min pre-incubation (at 37° C.), 10 μl/well of 5× concentrated LPA EC80 was added and Ca2+ mobilization responses was followed during the on-line addition protocol. Intracellular peak fluorescence values subtracted by baseline fluorescence are exported and analysed to determine IC50 values, respectively. The calcium response is expressed as percentage of the maximal inhibition of the EC80 agonist response.
The raw data obtained in unstimulated controls (DMSO, no LPA) are set as “100% inhibition”, while the raw data obtained in negative controls, i.e. in the absence of compounds and stimulating with LPA EC80, are set as “0% inhibition”.
The raw data (peak height expressed as relative fluorescence units) are normalized and transformed into “percent of inhibition”. Curve fitting and pIC50 (−Log IC50) estimations are carried out using a four-parameter logistic model using XLfit Software.
In general terms: A change in cytosolic calcium serves as a functional read-out for many receptors and channels.

T1 sequence (Q92633 whole entry): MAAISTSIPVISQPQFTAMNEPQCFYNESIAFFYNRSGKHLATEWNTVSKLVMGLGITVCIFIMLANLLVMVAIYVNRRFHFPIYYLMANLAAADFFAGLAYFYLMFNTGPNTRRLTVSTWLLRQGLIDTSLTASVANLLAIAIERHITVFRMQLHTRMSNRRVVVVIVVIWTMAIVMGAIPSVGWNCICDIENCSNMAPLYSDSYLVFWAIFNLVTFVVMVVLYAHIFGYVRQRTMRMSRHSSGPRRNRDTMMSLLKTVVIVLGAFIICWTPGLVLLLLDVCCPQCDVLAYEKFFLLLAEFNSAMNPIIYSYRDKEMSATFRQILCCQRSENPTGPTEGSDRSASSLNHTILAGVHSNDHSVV

`Cc1nc(-c2onc(C)c2NC(=O)O[C@H](C)c2ccccc2Cl)ccc1NC(=O)C1C(c2noc(=O)[nH]2)C1(F)F` (stereo partly drawn) [Compound 42, (R)-1-(2-chlorophenyl)ethyl (5-(5-(2,2-difluoro-3-(5-oxo-4,5-dihydro-1,2,4-oxadiazol-3-yl)cyclopropane-1-carboxamido)-6-methylpyridin-2-yl)-3-methylisoxazol-4-yl)carbamate]: the “Passive Permeability” value in series [1] was at most 0.5 ×10⁻⁶ cm/s. Further, in series [2], the IC50 was below 50 nM.

As for `Cc1noc(-c2ccc(NC(=O)C3C(c4nnn[nH]4)C3(F)F)cc2)c1NC(=O)O[C@H](C)c1ccccc1Cl` (mixture of isomers) [Compound 13, (R)-1-(2-chlorophenyl)ethyl (5-(4-(2,2-difluoro-3-(1H-tetrazol-5-yl)cyclopropane-1-carboxamido)phenyl)-3-methylisoxazol-4-yl)carbamate, mix of Trans diastereomers], the concentration for half-maximal inhibition (IC50) in series [2] was below 50 nM.

In the case of `Cc1nc(-c2onc(C)c2NC(=O)O[C@H](C)c2ccccc2Cl)ccc1NC(=O)[C@H]1[C@H](C(=O)O)C1(F)F` [Compound 2, (1R,3R)-3-((6-(4-((((R)-1-(2-chlorophenyl)ethoxy)carbonyl)amino)-3-methylisoxazol-5-yl)-2-methylpyridin-3-yl)carbamoyl)-2,2-difluorocyclopropane-1-carboxylic acid], in series [2], the half-inhibitory concentration (IC50) was below 50 nM.

With `Cc1nc(-c2onc(C)c2CNc2nccc(C3CCCCC3)n2)ccc1NC(=O)[C@@H]1[C@@H](C(=O)O)C1(F)F` (racemic) [Compound 18, 3-((6-(4-(((4-cyclohexylpyrimidin-2-yl)amino)methyl)-3-methylisoxazol-5-yl)-2-methylpyridin-3-yl)carbamoyl)-2,2-difluorocyclopropane-1-carboxylic acid, mix of Trans diastereomers], the 50% inhibitory concentration (IC50) in series [2] is below 50 nM.

For the compound `Cc1noc(-c2ccc(NC(=O)C3C(C(=O)O)C3(F)F)cn2)c1NC(=O)O[C@H](C)c1ccccc1Cl` (single isomer, unassigned) [Compound 5], the half-maximal inhibitory concentration (IC50) in series [2] is below 50 nM.

With `Cc1nc(-c2onc(C)c2NC(=O)O[C@H](C)c2ccccc2Cl)ccc1NC(=O)[C@@H]1[C@@H](C(=O)O)C1(F)F` [Compound 1, (1S,3S)-3-((6-(4-((((R)-1-(2-chlorophenyl)ethoxy)carbonyl)amino)-3-methylisoxazol-5-yl)-2-methylpyridin-3-yl)carbamoyl)-2,2-difluorocyclopropane-1-carboxylic acid], the IC50 in series [2] is below 50 nM.

Turning to `Cc1nc(-c2onc(C)c2CNc2nccc(-c3ccsc3)n2)ccc1NC(=O)[C@@H]1[C@@H](C(=O)O)C1(F)F` [Compound 21, (1S,3S)-2,2-difluoro-3-((2-methyl-6-(3-methyl-4-(((4-(thiophen-3-yl)pyrimidin-2-yl)amino)methyl)isoxazol-5-yl)pyridin-3-yl)carbamoyl)cyclopropane-1-carboxylic acid], the IC50 in series [2] was below 50 nM.

On to `Cc1nc(-c2onc(C)c2CNc2nccc(-c3cccs3)n2)ccc1NC(=O)[C@@H]1[C@@H](C(=O)O)C1(F)F` [Compound 24, (1S,3S)-2,2-difluoro-3-((2-methyl-6-(3-methyl-4-(((4-(thiophen-2-yl)pyrimidin-2-yl)amino)methyl)isoxazol-5-yl)pyridin-3-yl)carbamoyl)cyclopropane-1-carboxylic acid], for which, in series [2], the IC50 is below 50 nM.
